Data published in the supplement of paper PMC10627819.

Assays:
[1] = test system: S. aureus DSM 20231; assay: Bliss interaction score (quartile over a dose matrix) (fitness difference); higher = more antagonism (negative = synergy)
Outline: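 Values were capped at 1 after dividing OD595 at stationary-phase entry by the plate's robust no-drug mean. This ratio is fitness, and single-drug fitness was inferred from the combination data. The Bliss score is observed minus product-expected fitness, given as quartiles over technical, biological and donor/recipient replicates.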

[2] = test system: S. pneumoniae D39V; assay: fitness (endpoint OD595 vs no drug) (fraction); higher = more growth
Outline: (§1)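 Cultures at OD595 0.01 were dispensed into 384-well plates in TSB, LB Lennox or CY and incubated at 37 °C. Every 30 min for 14 h, OD595 was read and corrected by the first reading. Fitness is the optical density at entry into stationary phase relative to the robust mean of no-drug control wells, capped at 1.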

[3] = test system: B. subtilis 168; assay: as above
Outline: as §1

[4] = test system: S. aureus DSM 20231; assay: as above
Outline: as §1

[5] = test system: S. aureus Newman; assay: as above
Outline: as §1

[6] = first compound 0.125 µg/mL, partner 0.078 µg/mL
[7] = first compound 0.125 µg/mL, partner 0.156 µg/mL
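For Bliss interaction score (quartile over a dose matrix) in this document: first quartile when negative (synergy) and third quartile when positive (antagonism).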

Work on `CC(=O)OC[C@H]1O[C@@H]([S-])[C@H](OC(C)=O)[C@@H](OC(C)=O)[C@@H]1OC(C)=O.CCP(CC)CC.[Au+]` [Auranofin] + CC(=O)Oc1cccc2c1C(=O)c1c(OC(C)=O)cc(C(=O)O)cc1C2=O [Diacerein] yielded a Bliss interaction score [1] of -0.466.
`CC(=O)OC[C@H]1O[C@@H]([S-])[C@H](OC(C)=O)[C@@H](OC(C)=O)[C@@H]1OC(C)=O.CCP(CC)CC.[Au+]` [Auranofin] + C[C@H]1C[C@@H]2[C@H]([C@@H](O)C[C@@]3(C)[C@H]2CC[C@]3(O)C(=O)CO)[C@@]2(C)C=CC(=O)C=C12 [Methylprednisolone] gave a Bliss interaction score [1] of 0.162.
`CCc1oc2ccccc2c1C(=O)c1cc(Br)c(O)c(Br)c1` [Benzbromarone] + C1=CC(=CC(=C1)Cl)NN=C(C#N)C#N [CCCP] was tested, and the Bliss interaction score [1] was -0.103.
For `CCc1oc2ccccc2c1C(=O)c1cc(Br)c(O)c(Br)c1` [Benzbromarone] + CC(C1CCC(C(O1)OC2C(CC(C(C2O)OC3C(C(C(CO3)(C)O)NC)O)N)N)N)NC [Gentamicin], the Bliss interaction score ([1]; main component drawn) was 0.189.
In the case of `CCc1oc2ccccc2c1C(=O)c1cc(Br)c(O)c(Br)c1` [Benzbromarone] + N[C@@H]1CONC1=O [CycloserineD], the Bliss interaction score [1] is reported as -0.109.
`CCc1oc2ccccc2c1C(=O)c1cc(Br)c(O)c(Br)c1` [Benzbromarone] + O=C(O[C@@H]1Cc2c(O)cc(O)cc2O[C@@H]1c1cc(O)c(O)c(O)c1)c1cc(O)c(O)c(O)c1 [EGCG] showed a Bliss interaction score [1] of -0.139.
In the case of `O=C(N[C@H](CO)[C@H](O)c1ccc([N+](=O)[O-])cc1)C(Cl)Cl` [Chloramphenicol] + CC(=O)Oc1cccc2c1C(=O)c1c(OC(C)=O)cc(C(=O)O)cc1C2=O [Diacerein], the Bliss interaction score [1] is reported as -0.41.
With `O=C(N[C@H](CO)[C@H](O)c1ccc([N+](=O)[O-])cc1)C(Cl)Cl` [Chloramphenicol] + CCCSc1nc(N[C@@H]2C[C@H]2c2ccc(F)c(F)c2)c2nnn([C@@H]3C[C@H](OCCO)[C@@H](O)[C@H]3O)c2n1 [Ticagrelor] the Bliss interaction score [1] was -0.239.
`O=C(N[C@H](CO)[C@H](O)c1ccc([N+](=O)[O-])cc1)C(Cl)Cl` [Chloramphenicol] + C[C@H]1C[C@@H]2[C@H]([C@@H](O)C[C@@]3(C)[C@H]2CC[C@]3(O)C(=O)CO)[C@@]2(C)C=CC(=O)C=C12 [Methylprednisolone] was tested, and the Bliss interaction score [1] was -0.204.
Compound `CC[C@H]1OC(=O)[C@H](C)[C@@H](O[C@H]2C[C@@](C)(OC)[C@@H](O)[C@H](C)O2)[C@H](C)[C@@H](O[C@@H]2O[C@H](C)C[C@H](N(C)C)[C@H]2O)[C@](C)(OC)C[C@@H](C)C(=O)[C@H](C)[C@@H](O)[C@]1(C)O` [Clarithromycin] + CC(C)Cc1ccc(C(C)C(=O)O)cc1 [Ibuprofen] has a Bliss interaction score [1] of -0.171.
For `CC[C@H]1OC(=O)[C@H](C)[C@@H](O[C@H]2C[C@@](C)(OC)[C@@H](O)[C@H](C)O2)[C@H](C)[C@@H](O[C@@H]2O[C@H](C)C[C@H](N(C)C)[C@H]2O)[C@](C)(OC)C[C@@H](C)C(=O)[C@H](C)[C@@H](O)[C@]1(C)O` [Clarithromycin] + CN1CCC[C@H]1c1cccnc1 [Nicotine], the Bliss interaction score [1] was -0.223.
`CC[C@H]1OC(=O)[C@H](C)[C@@H](O[C@H]2C[C@@](C)(OC)[C@@H](O)[C@H](C)O2)[C@H](C)[C@@H](O[C@@H]2O[C@H](C)C[C@H](N(C)C)[C@H]2O)[C@](C)(OC)C[C@@H](C)C(=O)[C@H](C)[C@@H](O)[C@]1(C)O` [Clarithromycin] + C[C@H]1C[C@@H]2[C@H]([C@@H](O)C[C@@]3(C)[C@H]2CC[C@]3(O)C(=O)CO)[C@@]2(C)C=CC(=O)C=C12 [Methylprednisolone] showed a Bliss interaction score [1] of -0.275.
In the case of `CC[C@H]1OC(=O)[C@H](C)[C@@H](O[C@H]2C[C@@](C)(OC)[C@@H](O)[C@H](C)O2)[C@H](C)[C@@H](O[C@@H]2O[C@H](C)C[C@H](N(C)C)[C@H]2O)[C@](C)(OC)C[C@@H](C)C(=O)[C@H](C)[C@@H](O)[C@]1(C)O` [Clarithromycin] + Cc1c(Cl)cccc1Nc1ccccc1C(=O)O [Tolfenamic], the Bliss interaction score [1] is reported as -0.245.
`CC[C@H]1OC(=O)[C@H](C)[C@@H](O[C@H]2C[C@@](C)(OC)[C@@H](O)[C@H](C)O2)[C@H](C)[C@@H](O[C@@H]2O[C@H](C)C[C@H](N(C)C)[C@H]2O)[C@](C)(OC)C[C@@H](C)C(=O)[C@H](C)[C@@H](O)[C@]1(C)O` [Clarithromycin] + O=C(O)Cc1cc(I)c(Oc2ccc(O)c(I)c2)c(I)c1 [Tiratricol] showed a Bliss interaction score [1] of 0.192.
`CCC[C@@H]1C[C@@H](C(=O)N[C@@H]([C@H]2O[C@H](SC)[C@H](O)[C@@H](O)[C@H]2O)[C@H](C)Cl)N(C)C1` [Clindamycin] + CC(C)Cc1ccc(C(C)C(=O)O)cc1 [Ibuprofen] showed a Bliss interaction score [1] of -0.231.
`CCC[C@@H]1C[C@@H](C(=O)N[C@@H]([C@H]2O[C@H](SC)[C@H](O)[C@@H](O)[C@H]2O)[C@H](C)Cl)N(C)C1` [Clindamycin] + CO/N=C(\C(=O)N[C@@H]1C(=O)N2C(C(=O)O)=C(COC(C)=O)CS[C@H]12)c1csc(N)n1 [Cefotaxime] gave a fitness ([2]; first compound 0.0125 µg/mL, partner 0.0018 µg/mL) of 0.792, a fitness ([2]; first compound 0.0125 µg/mL, partner 0.0035 µg/mL) of 0.812 and a fitness ([2]; first compound 0.0125 µg/mL, partner 0.007 µg/mL) of 0.763. For the same compound, the fitness ([2]; first compound 0.015 µg/mL, partner 0.0018 µg/mL) was 0.889, the fitness ([2]; first compound 0.015 µg/mL, partner 0.0035 µg/mL) was 0.908 and the fitness ([2]; first compound 0.015 µg/mL, partner 0.007 µg/mL) was 0.803. For the same compound, the fitness ([2]; first compound 0.025 µg/mL, partner 0.0018 µg/mL) was 0.573, the fitness ([2]; first compound 0.025 µg/mL, partner 0.0035 µg/mL) was 0.549 and the fitness ([2]; first compound 0.025 µg/mL, partner 0.007 µg/mL) was 0.503. For the same compound, the fitness ([2]; first compound 0.03 µg/mL, partner 0.0018 µg/mL) was 0.709, the fitness ([2]; first compound 0.03 µg/mL, partner 0.0035 µg/mL) was 0.666 and the fitness ([2]; first compound 0.03 µg/mL, partner 0.007 µg/mL) was 0.569. The fitness ([2]; first compound 0.05 µg/mL, partner 0.0018 µg/mL) was 0.256, the fitness ([2]; first compound 0.05 µg/mL, partner 0.0035 µg/mL) was 0.253 and the fitness ([2]; first compound 0.05 µg/mL, partner 0.007 µg/mL) was 0.184. It also gave a fitness ([2]; first compound 0.06 µg/mL, partner 0.0018 µg/mL) of 0.374, a fitness ([2]; first compound 0.06 µg/mL, partner 0.0035 µg/mL) of 0.354 and a fitness ([2]; first compound 0.06 µg/mL, partner 0.007 µg/mL) of 0.288. It also gave a fitness ([3]; first compound 0.0039 µg/mL, partner 0.0625 µg/mL, one replicate) of 0.681, a fitness ([3]; first compound 0.0039 µg/mL, partner 0.125 µg/mL, one replicate) of 0.531 and a fitness ([3]; first compound 0.0039 µg/mL, partner 0.25 µg/mL, one replicate) of 0.442. For the same compound, the fitness ([3]; first compound 0.0078 µg/mL, partner 0.0625 µg/mL, one replicate) was 0.62, the fitness ([3]; first compound 0.0078 µg/mL, partner 0.125 µg/mL, one replicate) was 0.482 and the fitness ([3]; first compound 0.0078 µg/mL, partner 0.25 µg/mL, one replicate) was 0.389. The fitness ([3]; first compound 0.0156 µg/mL, partner 0.0625 µg/mL, one replicate) was 0.485, the fitness ([3]; first compound 0.0156 µg/mL, partner 0.125 µg/mL, one replicate) was 0.406 and the fitness ([3]; first compound 0.0156 µg/mL, partner 0.25 µg/mL, one replicate) was 0.314. It also gave a fitness ([3]; first compound 0.0625 µg/mL, partner 0.00775 µg/mL, one replicate) of 0.473, a fitness ([3]; first compound 0.0625 µg/mL, partner 0.0155 µg/mL, one replicate) of 0.389 and a fitness ([3]; first compound 0.0625 µg/mL, partner 0.031 µg/mL, one replicate) of 0.343. The fitness ([3]; first compound 0.0625 µg/mL, partner 0.5 µg/mL) was 0.138, the fitness ([3]; first compound 0.0625 µg/mL, partner 1 µg/mL) was 0.0488 and the fitness ([3]; first compound 0.0625 µg/mL, partner 2 µg/mL) was 0.0865. The fitness ([3]; first compound 0.125 µg/mL, partner 0.00775 µg/mL, one replicate) was 0.339, the fitness ([3]; first compound 0.125 µg/mL, partner 0.0155 µg/mL, one replicate) was 0.304 and the fitness ([3]; first compound 0.125 µg/mL, partner 0.031 µg/mL, one replicate) was 0.3. It also gave a fitness ([3]; first compound 0.125 µg/mL, partner 0.5 µg/mL) of 0.096, a fitness ([3]; first compound 0.125 µg/mL, partner 1 µg/mL) of 0.0462 and a fitness ([3]; first compound 0.125 µg/mL, partner 2 µg/mL) of 0.0669. The fitness ([3]; first compound 0.25 µg/mL, partner 0.00775 µg/mL, one replicate) was 0.33, the fitness ([3]; first compound 0.25 µg/mL, partner 0.0155 µg/mL, one replicate) was 0.254 and the fitness ([3]; first compound 0.25 µg/mL, partner 0.031 µg/mL, one replicate) was 0.111. The fitness ([3]; first compound 0.25 µg/mL, partner 0.5 µg/mL) was 0.0789, the fitness ([3]; first compound 0.25 µg/mL, partner 1 µg/mL) was 0.0542 and the fitness ([3]; first compound 0.25 µg/mL, partner 2 µg/mL) was 0.0739. It also gave a fitness ([4]; first compound 0.0625 µg/mL, partner 0.312 µg/mL) of 0.11, a fitness ([4]; first compound 0.125 µg/mL, partner 0.039 µg/mL) of 0.0991 and a fitness [4, 6] of 0.0447. The fitness [4, 7] was 0.0526, the fitness ([4]; first compound 0.125 µg/mL, partner 0.312 µg/mL) was 0.0465 and the fitness ([5]; first compound 0.0312 µg/mL, partner 0.039 µg/mL, one replicate) was 0.525. It also gave a fitness ([5]; first compound 0.0312 µg/mL, partner 0.078 µg/mL) of 0.437, a fitness ([5]; first compound 0.0312 µg/mL, partner 0.156 µg/mL) of 0.351 and a fitness ([5]; first compound 0.0312 µg/mL, partner 0.312 µg/mL, one replicate) of 0.128. For the same compound, the fitness ([5]; first compound 0.0312 µg/mL, partner 0.625 µg/mL) was 0.055, the fitness ([5]; first compound 0.0312 µg/mL, partner 1.25 µg/mL) was 0.036 and the fitness ([5]; first compound 0.0312 µg/mL, partner 2.5 µg/mL) was 0.0433. The fitness ([5]; first compound 0.0625 µg/mL, partner 0.039 µg/mL, one replicate) was 0.161, the fitness ([5]; first compound 0.0625 µg/mL, partner 0.078 µg/mL) was 0.223 and the fitness ([5]; first compound 0.0625 µg/mL, partner 0.156 µg/mL) was 0.114. The fitness ([5]; first compound 0.0625 µg/mL, partner 0.312 µg/mL, one replicate) was 0.0773, the fitness ([5]; first compound 0.0625 µg/mL, partner 0.625 µg/mL) was 0.0368 and the fitness ([5]; first compound 0.0625 µg/mL, partner 1.25 µg/mL) was 0.0614. The fitness ([5]; first compound 0.0625 µg/mL, partner 2.5 µg/mL) was 0.0509, the fitness ([5]; first compound 0.125 µg/mL, partner 0.039 µg/mL, one replicate) was 0.0501 and the fitness [5, 6] was 0.0724. For the same compound, the fitness [5, 7] was 0.0344, the fitness ([5]; first compound 0.125 µg/mL, partner 0.312 µg/mL, one replicate) was 0.113 and the fitness ([5]; first compound 0.125 µg/mL, partner 0.625 µg/mL) was 0.0721. The fitness ([5]; first compound 0.125 µg/mL, partner 1.25 µg/mL) was 0.0661 and the fitness ([5]; first compound 0.125 µg/mL, partner 2.5 µg/mL) was 0.0579.
